pEC50: −log10 of the molar value.
What follows are compounds tested against T1, human M4 muscarinic acetylcholine receptor (Homo sapiens, UniProt P08173) (assay: human FLIPR-based M4 PAM assay (Ca2+ dye fluorescence, CHO-K1 cells with human M4 receptor and Gαqi5)). Conditions: inflection point (IP) of dose response curve, FLIPR Tetra, acetylcholine at 20% of maximum response.
T1 construct: expressed in transfected cells; host or cells: CHO-K1
T1 sequence (P08173 1-479): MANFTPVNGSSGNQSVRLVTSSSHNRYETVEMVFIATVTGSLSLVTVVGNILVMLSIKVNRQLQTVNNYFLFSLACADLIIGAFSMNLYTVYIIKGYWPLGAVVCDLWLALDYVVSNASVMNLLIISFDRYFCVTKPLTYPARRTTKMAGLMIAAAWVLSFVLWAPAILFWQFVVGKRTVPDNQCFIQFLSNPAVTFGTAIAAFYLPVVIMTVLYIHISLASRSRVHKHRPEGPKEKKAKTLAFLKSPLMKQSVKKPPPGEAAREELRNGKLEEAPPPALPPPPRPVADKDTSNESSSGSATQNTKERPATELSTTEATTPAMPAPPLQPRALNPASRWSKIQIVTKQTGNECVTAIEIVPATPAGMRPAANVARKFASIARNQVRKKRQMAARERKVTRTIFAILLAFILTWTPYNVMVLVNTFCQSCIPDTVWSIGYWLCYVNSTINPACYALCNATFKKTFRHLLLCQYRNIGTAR
Format: cell-based
Experimental: In a typical experiment the M4 muscarinic acetylcholine receptor modulating activity of the compounds of the present invention was determined in accordance with the following experimental method. CHO-K1 cells stably transfected with human M4 receptor and chimeric G-protein Gαqi5 (Coward P, et al., Analytical Biochemistry, 270:242-248 (1999)) are thawed from liquid N2 storage, resuspended in growth medium, plated in black, clear bottom 384 well plates, and incubated 16-20 hours at 37° C., 5% CO2. On the day of assay, growth medium is removed, the cells are washed 2 times with wash buffer, and cells are incubated in dye loading buffer at 37° C., 5% CO2 for ˜1 hour. Following dye loading the cell plates are placed in a FLIPR Tetra instrument and while monitoring dye fluorescence (excitation […]), 10 uL of test substance at increasing concentrations is added, and fluorescence values are recorded for 4 min. Next, 10 uL of acetylcholine is added (final concentration calculated so as to achieve 20% of the maximum acetycholine response), and the fluorescence reading is continued for 3.5 min. In some cases, a third addition of acetylcholine (final concentration calculated to achieve 70% of the maximal acetylcholine response) is performed. The resulting dose response curves are fit to a 4 parameter logistic equation and the final result is determined as the inflection point (IP) of the curve
CHO-K1 cells stably transfected with human M4 receptor and chimeric G-protein Gαqi5 are thawed from liquid N2 storage, resuspended in growth medium, plated in black, clear bottom 384 well plates, and incubated 16-20 hours at 37° C., 5% CO2.
On the day of assay, growth medium is removed, the cells are washed 2 times with wash buffer, and cells are incubated in dye loading buffer at 37° C., 5% CO2 for ˜1 h. Following dye loading the cell plates are placed in a FLIPR Tetra instrument and while monitoring dye fluorescence ([…]), 10 uL of test substance at increasing concentrations is added, and fluorescence values are recorded for 4 min. Next, 10 uL of acetylcholine is added (final concentration calculated so as to achieve 20% of the maximum acetycholine response), and the fluorescence reading is continued for 3.5 min. In some cases, a third addition of acetylcholine (final concentration calculated to achieve 70% of the maximal acetylcholine response) is performed.

SMILES	pEC50
Cc1cc2c(nc1N1CCC(Oc3ccc4c(c3)CCOC4)C3CC31)CNC2=O (centres unmarked) [Example 31, 2-(5-(isochroman-6-yloxy)-2-azabicyclo[4.1.0]heptan-2-yl)-3-methyl-6,7-dihydro-5H-pyrrolo[3,4-b]pyridin-5-one]	7.14
Cc1c(N2CCC(OCC3(C)CC3)C3CC32)nc2c(c1C)C(=O)N1CCC(O)CC21 (single isomer, unassigned) [Example 22, 9-hydroxy-3,4-dimethyl-2-(5-((1-methylcyclopropyl)methoxy)-2-azabicyclo[4.1.0]heptan-2-yl)-8,9,10,10a-tetrahydropyrido[2,3-a]indolizin-5(7H)-one]	6.94
Cc1c(N2CCC(OCC3(C)CC3)C3CC32)nc2c(c1C)C(=O)N1CCOCC21 (centres unmarked) [Example 26, 3,4-dimethyl-2-(5-((1-methylcyclopropyl)methoxy)-2-azabicyclo[4.1.0]heptan-2-yl)-7,8,10,10a-tetrahydro-5H-pyrido[2′,3′:3,4]pyrrolo[2,1-c][1,4]oxazin-5-one]	6.82
Cc1cc2c(nc1N1CCC(OCC3(C)CC3)C3CC31)CNC2=O (single isomer, unassigned) [Example 4, 3-methyl-2-(5-((1-methylcyclopropyl)methoxy)-2-azabicyclo[4.1.0]heptan-2-yl)-6,7-dihydro-5H-pyrrolo[3,4-b]pyridin-5-one]	5.78
Cc1c(N2CCC(OCC3(C)CC3)C3CC32)nc2c(c1C)C(=O)N(C)C2CO (single isomer, unassigned) [Example 7, 7-(hydroxymethyl)-3,4,6-trimethyl-2-(5-((1-methylcyclopropyl)methoxy)-2-azabicyclo[4.1.0]heptan-2-yl)-6,7-dihydro-5H-pyrrolo[3,4-b]pyridin-5-one]	6.18
Cc1cc2c(nc1N1CCC(Oc3ccc4c(c3)COCC4)C3CC31)CNC2=O (centres unmarked) [Example 36, 2-(5-(isochroman-7-yloxy)-2-azabicyclo[4.1.0]heptan-2-yl)-3-methyl-6,7-dihydro-5H-pyrrolo[3,4-b]pyridin-5-one]	6.81
CCc1cc2c(nc1N1CCC(OCC3(C)CC3)C3CC31)C(CO)N(C)C2=O (single isomer, unassigned) [Example 11, 3-ethyl-7-(hydroxymethyl)-6-methyl-2-(5-((1-methylcyclopropyl)methoxy)-2-azabicyclo[4.1.0]heptan-2-yl)-6,7-dihydro-5H-pyrrolo[3,4-b]pyridin-5-one]	6.13
Cc1c(N2CCC(OCC3(C)CC3)C3CC32)nc2c(c1C)C(=O)NC2 (single isomer, unassigned) [Example 2, 3,4-dimethyl-2-(5-((1-methylcyclopropyl)methoxy)-2-azabicyclo[4.1.0]heptan-2-yl)-6,7-dihydro-5H-pyrrolo[3,4-b]pyridin-5-one]	5.88
Cc1cc2c(nc1N1CCC(OCC3(C)CC3)C3CC31)CNC2=O (single isomer, unassigned) [Example 3, 3-methyl-2-(5-((1-methylcyclopropyl)methoxy)-2-azabicyclo[4.1.0]heptan-2-yl)-6,7-dihydro-5H-pyrrolo[3,4-b]pyridin-5-one]	7.40
Cc1c(N2CCC(Oc3ccc4c(c3)COC4)C3CC32)nc2c(c1C)C(=O)N(C)C2 (centres unmarked) [Example 37, 2-(5-((1,3-dihydroisobenzofuran-5-yl)oxy)-2-azabicyclo[4.1.0]heptan-2-yl)-3,4,6-trimethyl-6,7-dihydro-5H-pyrrolo[3,4-b]pyridin-5-one]	6.84
Cc1c(N2CCC(OCC3(C)CC3)C3CC32)nc2c(c1C)C(=O)N(CC(C)(C)O)C2 (single isomer, unassigned) [Example 20, 6-(2-hydroxy-2-methylpropyl)-3,4-dimethyl-2-(5-((1-methylcyclopropyl)methoxy)-2-azabicyclo[4.1.0]heptan-2-yl)-6,7-dihydro-5H-pyrrolo[3,4-b]pyridin-5-one]	4.92

Source: patent US10945771B2, “Azabicyclo[4.1.0]heptane allosteric modulators of the M4 muscarinic acetylcholine receptor” (Merck Sharp & Dohme Corp., priority 2017, dated 2021)
